This is an account of results in PMC6966912, “Inverted Binding of Non-natural Substrates in Strictosidine Synthase Leads to a Switch of Stereochemical Outcome in Enzyme-Catalyzed Pictet–Spengler Reactions” (Journal of the American Chemical Society, 2020).

Data set [1] concerns the target T1, OpSTR (strictosidine synthase from Ophiorrhiza pumila) (Ophiorrhiza pumila, UniProt Q94LW9). Nature of the data set: biochemical. Further details: gene str.
In data set [2] the target is T1, OpSTR (strictosidine synthase from Ophiorrhiza pumila). The data set is described as follows: X-ray crystal structure (cocrystallization with racemate). Format: binding. Also on record: gene str; N-terminal signal peptide removed for improved expression. To be noted: active site, near Glu276.
Substrate in data set [3]: CC(C)CC=O
Nature of the data set: enzyme kinetics of Pictet-Spengler reaction. To be noted: co-substrate tryptamine. The format is biochemical, Ophiorrhiza pumila.

In the case of `CC1NCCc2c1[nH]c1ccccc21` (racemic) [rac-3d], the IC50 (in general, the midpoint of a concentration-inhibition curve) in data set [1] is 3.4 ± 0.3 mM.

For the molecule `CC(C)C[C@@H]1NCCc2c1[nH]c1ccccc21` [3a, (S)-3a], the “X-ray crystal structure (cocrystallization with racemate)” value (“X-ray crystal structure” below) in data set [2] was “exclusively the (S)-enantiomers of 3a–c were identified in the active site of OpSTR”.

With `CCC[C@@H]1NCCc2c1[nH]c1ccccc21` [3b, (S)-3b], in data set [2], the “X-ray crystal structure” value is recorded as “exclusively the (S)-enantiomers of 3a–c were identified in the active site of OpSTR”.

Consider `CC[C@@H]1NCCc2c1[nH]c1ccccc21` [3c, (S)-3c], for which, in data set [2], the “X-ray crystal structure” value is given as “exclusively the (S)-enantiomers of 3a–c were identified in the active site of OpSTR”.

In data set [1], `C[C@@H]1NCCc2c1[nH]c1ccccc21` [(S)-3d] displayed an IC50 of 1.6 ± 0.1 mM.

B1: OpSTR (strictosidine synthase from Ophiorrhiza pumila) (Ophiorrhiza pumila) (protein)
chain: SPEFFEFIEAPSYGPNAYAFDSDGELYASVEDGRIIKYDKPSNKFLTHAVASPIWNNALCENNTNQDLKPLCGRVYDFGFHYETQRLYIADCYFGLGFVGPDGGHAIQLATSGDGVEFKWLYALAIDQQAGFVYVTDVSTKYDDRGVQDIIRINDTTGRLIKYDPSTEEVTVLMKGLNIPGGTEVSKDGSFVLVGEFASHRILKYWLKGPKANTSEFLLKVRGPGNIKRTKDGDFWVASSDNNGITVTPRGIRFDEFGNILEVVAIPLPYKGEHIEQVQEHDGALFVGSLFHEFVGILHNYKSSVDHHQEKNSGGLNASFKEFSSF
notes: N-terminal signal peptide removed for improved expression
Take B1: the Km (commonly the substrate concentration at which the rate is half of its maximum) in data set [3] turned out to be 5.36 ± 0.83 mM.
